# Test results from patent publication US11780826B2 (Amgen Inc., priority 2017, dated 2023).
# System: Bovine cardiac myofibrils
# Test: In vitro model of dose-dependent myofibril ATPase modulation (AC1.4, pyruvate kinase/lactate dehydrogenase-coupled ATPase assay at pCa25)
# Type: biochemical
# Conditions: concentration at which ATPase activity was 1.4-fold higher than the bottom of the dose curve, mean of a minimum of two independent tests
# Procedure, shortened: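 We measure calcium-buffered ATPase activity of detergent-skinned bovine cardiac myofibrils at pH 6.80 and 22° C with 1 mM ATP, using a PK/LDH-coupled NADH readout at 340 nm. Values come from four-parameter dose-response fits, averaged over at least two independent runs.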
smiles,measurement,value
"O=C(N[C@@H](c1ccc(C(F)(F)F)cc1F)C1CC1)[C@H]1CCCN1C(=O)c1cccc(-c2cn[nH]c2)c1 [Example 737, N-((R)-cyclopropyl(2-fluoro-4-(trifluoromethyl)phenyl)methyl)-1-(3-(1H-pyrazol-4-yl)benzoyl)-D-prolinamide]",AC1.4,7.053 µM
"O=C(N[C@@H](c1ccc(C(F)(F)F)cc1F)C1CC1)[C@H]1C[C@H]2C[C@H]2N1C(=O)c1ccnc(C(F)(F)F)c1 [Example 495, (1R,3R,5R)-N-((R)-cyclopropyl(2-fluoro-4-(trifluoromethyl)phenyl)methyl)-2-((2-(trifluoromethyl)-4-pyridinyl)carbonyl)-2-azabicyclo[3.1.0]hexane-3-carboxamide]",AC1.4,2.278 µM
"N#CC1CC(S(=O)(=O)c2cccc(C(=O)N3CCCC[C@@H]3C(=O)NCc3ccc(C(F)(F)F)nc3)c2)C1 (stereo partly drawn) [Example 460, (R)-1-(3-((3-cyanocyclobutyl)sulfonyl)benzoyl)-N-((6-(trifluoromethyl)pyridin-3-yl)methyl)piperidine-2-carboxamide]",AC1.4,1.915 µM
"Cc1cc(CNC(=O)[C@H]2CCCN2C(=O)[C@H]2CCCN(S(=O)(=O)N3CC(C#N)C3)C2)cc(C(F)(F)F)c1 [Example 358, 1-(((3S)-1-((3-cyano-1-azetidinyl)sulfonyl)-3-piperidinyl)carbonyl)-N-(3-methyl-5-(trifluoromethyl)benzyl)-D-prolinamide]",AC1.4,1.0947 µM
"CS(=O)(=O)c1cccc(C(=O)N2CCC[C@@H]2C(=O)N[C@@H](c2ccc(C(F)F)cc2F)C2CC2)c1 [Example 721, N-((R)-cyclopropyl(4-(difluoromethyl)-2-fluorophenyl)methyl)-1-(3-(methylsulfonyl)benzoyl)-D-prolinamide]",AC1.4,6.2885 µM
"CS(=O)(=O)c1cccc(C(=O)N2C[C@@H](F)C[C@@H]2C(=O)N[C@@H](c2ccc(C(F)(F)F)cc2F)C2COC2)c1 [Example 528, (4S)-4-fluoro-N-((R)-(2-fluoro-4-(trifluoromethyl)phenyl)(3-oxetanyl)methyl)-1-(3-(methylsulfonyl)benzoyl)-D-prolinamide]",AC1.4,2.4294 µM
"Cc1ccc(CNC(=O)[C@H]2CCCN2C(=O)[C@H]2CCCN(S(=O)(=O)N3CC(C#N)C3)C2)cc1Cl [Example 130, N-(3-chloro-4-methylbenzyl)-1-(((3S)-1-((3-cyano-1-azetidinyl)sulfonyl)-3-piperidinyl)carbonyl)-D-prolinamide]",AC1.4,0.214 µM
"CS(=O)(=O)c1cccc(C(=O)N2CC(F)(F)C[C@@H]2C(=O)N[C@@H](c2ccc(C(F)(F)F)cc2F)C2CC2)c1 [Example 320, N-((R)-cyclopropyl(2-fluoro-4-(trifluoromethyl)phenyl)methyl)-4,4-difluoro-1-(3-(methylsulfonyl)benzoyl)-D-prolinamide]",AC1.4,0.8613 µM
"Cc1nnc(CNS(=O)(=O)N2CCC[C@H](C(=O)N3CCC[C@@H]3C(=O)NCc3ccc(C(F)(F)F)cc3)C2)o1 [Example 774, 1-(((3S)-1-(((5-methyl-1,3,4-oxadiazol-2-yl)methyl)sulfamoyl)-3-piperidinyl)carbonyl)-N-(4-(trifluoromethyl)benzyl)-D-prolinamide]",AC1.4,8.3045 µM
"CC(C)(C)OC1CN(S(=O)(=O)N2CCC[C@H](C(=O)N3CCC[C@@H]3C(=O)NCc3ccc(C(F)(F)F)cc3)C2)C1 [Example 734, 1-(((3S)-1-((3-tert-butoxy-1-azetidinyl)sulfonyl)-3-piperidinyl)carbonyl)-N-(4-(trifluoromethyl)benzyl)-D-prolinamide]",AC1.4,6.866 µM
"N#CC1CN(S(=O)(=O)N2CCC[C@H](C(=O)N3[C@@H](C(=O)NCc4ccc(C(F)(F)F)cn4)C[C@H]4C[C@H]43)C2)C1 [Example 348, (1R,3R,5R)-2-(((3S)-1-((3-cyano-1-azetidinyl)sulfonyl)-3-piperidinyl)carbonyl)-N-((5-(trifluoromethyl)-2-pyridinyl)methyl)-2-azabicyclo[3.1.0]hexane-3-carboxamide]",AC1.4,1.0273 µM
"NS(=O)(=O)c1cccc(C(=O)N2CCCC[C@@H]2C(=O)N[C@@H](c2ccc(C(F)(F)F)cc2F)C2CC2)c1 [Example 359, (2R)-N-((R)-cyclopropyl(2-fluoro-4-(trifluoromethyl)phenyl)methyl)-1-(3-sulfamoylbenzoyl)-2-piperidinecarboxamide]",AC1.4,1.1055 µM
"O=C(N[C@@H](c1ccc(C(F)(F)F)cc1F)C1CC1)[C@H]1C[C@H]2C[C@H]2N1C(=O)c1cccc(C(O)C(F)(F)F)c1 (stereo partly drawn) [Example 547, (1R,3R,5R)-N-((R)-cyclopropyl(2-fluoro-4-(trifluoromethyl)phenyl)methyl)-2-(3-(2,2,2-trifluoro-1-hydroxyethyl)benzoyl)-2-azabicyclo[3.1.0]hexane-3-carboxamide]",AC1.4,2.836 µM
"N#C[C@H]1CCN(S(=O)(=O)N2CCC[C@H](C(=O)N3CCC[C@@H]3C(=O)NCc3ccc(C(F)(F)F)cc3)C2)C1 [Example 192, 1-(((3S)-1-(((3S)-3-cyano-1-pyrrolidinyl)sulfonyl)-3-piperidinyl)carbonyl)-N-(4-(trifluoromethyl)benzyl)-D-prolinamide]",AC1.4,0.3628 µM
"CCS(=O)(=O)c1cccc(C(=O)N2[C@@H](C(=O)N[C@@H](c3cc(F)c(Cl)cc3F)[C@H](C)O)C[C@H]3C[C@H]32)c1 [Example 395, (1R,3R,5R)-N-((1S,2S)-1-(4-chloro-2,5-difluorophenyl)-2-hydroxypropyl)-2-(3-(ethylsulfonyl)benzoyl)-2-azabicyclo[3.1.0]hexane-3-carboxamide]",AC1.4,1.361 µM
"CC[C@H](NC(=O)[C@H]1CCCN1C(=O)c1cccc(S(=O)(=O)N(C)C)c1)c1ccc(Cl)c(F)c1 [Example 629, N-((1S)-1-(4-chloro-3-fluorophenyl)propyl)-1-(3-(dimethylsulfamoyl)benzoyl)-D-prolinamide]",AC1.4,4.051 µM
"N#CC1CN(S(=O)(=O)c2cccc(C(=O)N3CC4(CC4)C[C@@H]3C(=O)NCc3ccc(C(F)(F)F)cc3)c2)C1 [Example 15, (6R)-5-((3-((3-cyano-1-azetidinyl)sulfonyl)phenyl)carbonyl)-N-(4-(trifluoromethyl)benzyl)-5-azaspiro[2.4]heptane-6-carboxamide]",AC1.4,0.02315 µM
"CC(NC(=O)[C@H]1CCCN1C(=O)[C@H]1CCCN(S(=O)(=O)N2CC(C#N)C2)C1)c1ccc(OC(F)F)cc1 (stereo partly drawn) [Example 594, (2R)-1-((S)-1-((3-cyanoazetidin-1-yl)sulfonyl)piperidine-3-carbonyl)-N-(1-(4-(difluoromethoxy)phenyl)ethyl)pyrrolidine-2-carboxamide]",AC1.4,3.505 µM
"O=C(NCc1ccc(C(F)(F)F)cc1)[C@H]1CCCN1C(=O)[C@H]1CCCN(S(=O)(=O)N2CC(c3cccc(C(F)(F)F)c3)C2)C1 [Example 771, N-(4-(trifluoromethyl)benzyl)-1-(((3S)-1-((3-(3-(trifluoromethyl)phenyl)-1-azetidinyl)sulfonyl)-3-piperidinyl)carbonyl)-D-prolinamide]",AC1.4,8.1415 µM
"N#CC1CN(S(=O)(=O)N2CCC[C@H](C(=O)N3CCC[C@@H]3C(=O)NCc3ccc(C(F)(F)F)cc3F)C2)C1 [Example 62, 1-(((3S)-1-((3-cyano-1-azetidinyl)sulfonyl)-3-piperidinyl)carbonyl)-N-(2-fluoro-4-(trifluoromethyl)benzyl)-D-prolinamide]",AC1.4,0.07198 µM
